Patent US5318971A, “3-Substituted-1-aryl-2(1H)-quinolones useful as anti-allergy and anti-inflammatory agents” (Schering Corporation, priority 1991, dated 1994)
Like-named read-outs stand apart in the source and are kept apart here.

Experiments:
rat pleural cavity = test: Reverse Passive Arthus Pleurisy Reaction (RPAPR), pleural exudate cells and fluid; type: in vivo; conditions: po; for inhibition in vivo at 25 mg/kg: 25 mg/kg p.o.; for inhibition in vivo at 5 mg/kg: 5 mg/kg p.o.; for inhibition in vivo at 10 mg/kg: 10 mg/kg p.o.
Experimental: (§1) RPAPR was produced by a modification of the Yamamoto et al. method (Agents and Actions 5: 374-377, 1975). Thirty (30) minutes prior to lightly anesthesizing rats with ether and then sensitizing them by injecting the animals i.v. with 0.33 mg of bovine serum albumin (BSA) dissolved in 0.2 ml sterile saline, a test compound was administered per os (p.o.) as indicated in Table 1. Thirty minutes later, the rats were again lightly anesthetized and challenged intrapleurally with a rabbit anti-BSA antibody (Organon), containing 1.2 mg antibody protein, dissolved in 0.2 ml sterile saline. Four hours after challenge the rats were sacrificed by CO2 inhalation, their pleural cavities exposed and the exudate harvested. The total volumes of each exudate was recorded and the total number of leukocytes determined using a Coulter Counter ZM.

[1] = tested on: SRS-A (leukotriene) release, guinea pig lung; test: SRSA Release in vitro (leukotriene release from sensitized guinea pig lung fragments); type: cell-based; conditions: Cavia porcellus, ovalbumin challenge, read-out: SRSA Release in vitro % l
Experimental: First, kill sensitized guinea pigs by a blow to the head, remove the lungs and clean them of visible connective tissue, trachea and large blood vessels. Slice the lungs from individual animals into fragments approximately 1 mm in thickness using a Mcllwain tissue chopper and wash them with oxygenated Tyrode's buffer. Transfer weighted allquots (approximately 400 mg wet weight) of lung into vials containing 2 ml of fresh Tyrode's solution (containing 10 mM cysteine) and incubate in the presence or absence of test compound for 12 minutes at 37° C., challenge the tissues with 20 μg ovalbumin/ml (final concentration) and incubate for 15 minutes.
To measure leukotriene release, extract an aliquot of supernatant fluid with 4 volumes of 100% ethanol. After removal of the precipitated protein, dry the clear fluid under a stream of N2 gas. Measure the leukotriene content by a radioimmunoassay using [^3 H]LTC4 (leukotriene C4) and antiserum obtained from New England Nuclear. Calculate percent inhibition of leukotriene release by comparing for each lung the release in the presence of the test compound to that in the absence of test compound.

[2] = tested on: antigen-induced SRS-A mediated bronchoconstriction; test: Guinea Pig Bronchospasm (anaphylactic bronchospasm in sensitized guinea pigs); type: in vivo; conditions: 5 mg/kg p.o., ovalbumin aerosol challenge
Experimental: The anti-allergy activity of the compounds of this invention is identified by tests which measure a compound's inhibition of anaphylactic bronchospasms in sensitized guinea pigs having antigen-induced SRS-A mediated bronchoconstriction. Allergic bronchospasms were measured in actively sensitized guinea pigs by a modification of the procedure of Konzett and Rossler, Arch. Expt. Pathol. Pharmakol., 194, pp. 71-74 (1940). Male Hartly guinea pigs were sensitized with 5 mg ovalbumin injected ip and 5 mg injected sc in 1 ml saline on day 1 and 5 mg ovalbumin injected ip on day 4. To measure anaphylactic bronchospasm, sensitized guinea pigs were fasted overnight and the following morning were anesthetized with 0.9 mL/kg ip dialurethane. The trachea and jugular vein were cannulated and the animals were ventilated by a Harvard rodent respirator. A side arm to the tracheal cannula was connected to a Harvard pressure transducer to obtain a continuous measure of intratracheal pressure. An increase in intratracheal pressure was taken as a measure of bronchoconstriction. Each guinea pig was injected i.v. with 1 mg/kg propranolol, 5 mg/kg indomethacin and 2 mg/kg mepyramine given together in a volume of 1 mL/kg. […] Bronchoconstriction was measured as the peak increase in intratracheal pressure occurring within 15 minutes after antigen challenge.

LTE4 (Leukotriene E4) = test: Reverse Passive Arthus Pleurisy Reaction (RPAPR), LTE4 in pleural exudate; type: in vivo; conditions: rat, 25 mg/kg p.o.; radioimmunoassay of exudate
Experimental: as §1
(§2) The exudate were then centrifuged and the supernatants decanted. Four volumes of cold 95% acetone was added for each volume of exudate. One half hour later the samples were again centrifuged for 10 minutes. Immediately after, 5 ml of the supernatant was removed and dried under nitrogen. These samples were kept in a freezer until LTE4 and TxB2 were determined using a radioimmune assay kit from Amersham.
LTE4 = Leukotriene E4 a measure of lipoxygenase (LO) derived
(§3) mediators of inflammation.

TXB2 (Thromboxane B2) = test: Reverse Passive Arthus Pleurisy Reaction (RPAPR), TxB2 in pleural exudate; type: in vivo; conditions: rat, 25 mg/kg p.o.; radioimmunoassay of exudate
Experimental: as §1, §2
TXB2 = Thromboxane B2 a measure of cyclooxygenase (CO) derived
as §3

[3] = Leukocyte, leukocytes in exudate 4 h after challenge, read-out: % Inhibition Cells
[4] = exudate volume 4 h after challenge, read-out: % Inhibition Fluid

Row | Structure (SMILES) | inhibition in vivo at 25 mg/kg (rat pleural cavity; [3]) | inhibition in vivo at 25 mg/kg (rat pleural cavity; [4]) | other results
1 | O=c1c(Cn2cccn2)cc2ccccc2n1-c1ccccc1 [Formula 57] | 20% | 19% | –
2 | O=c1c(Cn2cncn2)cc2ccccc2n1-c1cccc(Cl)c1 [Formula 56, (1-3-Chlorophenyl)-3-(1H-1,2,4-Triazol-1-ylmethyl)-2(1H)-Quinolone] | – | – | inhibition in vivo at 5 mg/kg (rat pleural cavity; [3]): 56%; inhibition in vivo at 5 mg/kg (rat pleural cavity; [4]): 63%
3 | CC(=O)N1CCN(Cc2cc3ccccc3n(-c3ccccc3)c2=O)CC1 [Formula 59] | 68% | 68% | –
4 | O=c1c(Cn2cnnn2)cc2ccccc2n1-c1ccccc1 [Formula 3] | – | – | inhibition at 30 µM [1]: 83%; inhibition in vivo at 10 mg/kg (rat pleural cavity; [3]): 75%; inhibition in vivo at 10 mg/kg (rat pleural cavity; [4]): 50%
5 | C[S+]([O-])Cc1cc2ccccc2n(Cc2ccccc2)c1=O (stereo not shown) [Formula 51] | 22% | < 10% | –
6 | O=c1c(Cn2cncn2)cc2cc(Br)ccc2n1-c1ccccc1 [Formula 54, 6-bromo-1-phenyl-3-(1H-1,2,4-triazol-1-ylmethyl)-2(1H)-quinolone] | < 10% | < 10% | –
7 | O=c1c(Cn2cncn2)cc2ccccc2n1-c1ccc(Cl)cc1 [Formula 53] | < 10% | 18% | inhibition at 30 µM [1]: 76%; G.P. Bronchospasm % l [2]: 18%
8 | CCc1nccn1Cc1cc2ccccc2n(-c2ccccc2)c1=O [Formula 50] | < 10% | < 10% | –
9 | O=c1c(Cn2cncn2)cc2ccccc2n1Cc1ccccc1 [Formula 52] | 44% | 46% | –
10 | CC(=O)NCc1cc2ccccc2n(-c2ccccc2)c1=O [Formula 58] | 62% | 53% | –
11 | Cn1ccnc1SCc1cc2ccccc2n(-c2ccccc2)c1=O [Formula 48, 1-Phenyl-3-(1-Methyl-1H-imidazol-2-ylthiomethyl)-2(1H)-quinolone] | 75% | 40% | % Inhibition LTE4 (LTE4 (Leukotriene E4)): 57%; % Inhibition TXB2 (TXB2 (Thromboxane B2)): 67%
12 | O=c1c(Cn2cncn2)cc2ccccc2n1-c1ccccc1 [Formula 2] | – | – | inhibition at 30 µM [1]: 83%; inhibition in vivo at 5 mg/kg (rat pleural cavity; [3]): 64%; inhibition in vivo at 5 mg/kg (rat pleural cavity; [4]): 42%
13 | O=c1c(Cn2cncn2)cc2ccc(Cl)cc2n1-c1ccccc1 [Formula 55, 1-phenyl-7-chloro-3-(1H-1,2,4-triazol-1-ylmethyl)-2(1H)-quinolone] | < 10% | < 10% | –
14 | O=c1c(CCn2ccnc2)cc2ccccc2n1-c1ccccc1 [Formula 49] | 86% | 53% | –
